One compound from paper PMC6161602, “Synthesis and characterisation of (Z)-styrylbenzene derivatives as potential selective anticancer agents” (Journal of Enzyme Inhibition and Medicinal Chemistry, 2018) can be followed below.

Where only a bound is given, the exact number is not on record here.

The subject of data set [1] is MGC-803 cells. As to the kind of experiment: MTT cell growth inhibition assay, MGC-803. It is filed as cell-based, human. To be noted: for IC50: MTT, 48 h incubation, MGC-803. Summed up: (§1)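 48 h compound exposure (1/10/50/100 µM), DMEM or RPMI-1640 + 10% FBS, 37 °C. MTT 2 mg/mL final, 4 h; DMSO solubilisation; A492 read-out.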
The subject of data set [2] is A549 lung cancer cell. As to the kind of experiment: MTT cell growth inhibition assay, A549. The format is cell-based, human. Summed up:
as §1

The subject of data set [3] is HepG2 hepatoma cell. Briefly: MTT cell growth inhibition assay, HepG-2. It is filed as cell-based, human. The procedure, abridged: as §1
The subject of data set [4] is AGS cells. Briefly: MTT cell growth inhibition assay, AGS. The format is cell-based, human. The procedure, abridged: as §1
Data set [5] has as its system BEL-7402 cells. As to the kind of experiment: MTT cell growth inhibition assay, BEL-7402. The format is cell-based, human. To be noted: Homo sapiens; MTT, 48 h incubation, Bel-7402. The procedure, abridged: as §1
For data set [6], the system named is HCT116 cells. Briefly: MTT cell growth inhibition assay, HCT116. It is filed as cell-based, human. Summed up:
as §1

Data set [7] relates to L-02 normal liver cell. As to the kind of experiment: MTT cell growth inhibition assay, L-02 (normal). It is filed as cell-based, human. To be noted: Homo sapiens, 48 h incubation, L-02 normal cells. Summed up:
as §1

In data set [8] the test system is HeLa cervical cancer cell. Briefly: MTT cell growth inhibition assay, HeLa. It is filed as cell-based, human. Particulars: Homo sapiens, 48 h incubation. The procedure, abridged: as §1
Data set [9] has as its system SGC-7901 early differentiation gastric cancer cell. As to the kind of experiment: MTT cell growth inhibition assay, SGC-7901. Particulars: Homo sapiens, 48 h incubation. It is filed as cell-based, human. The procedure, abridged: as §1
Data set [10] concerns MCF-10A normal breast cell. As to the kind of experiment: MTT cell growth inhibition assay, MCF-10A (normal). It is filed as cell-based, human. To be noted: Homo sapiens, 48 h incubation, MCF-10A normal cells. Summed up:
as §1

The subject of data set [11] is BEL-7402 cells. Briefly: Analysis of apoptosis by flow cytometry (Annexin V-FITC/PI). The format is cell-based, human. To be noted: BEL-7402, 0.1 µM, 12 h; vehicle 4.7%. How it is done: Apoptosis was detected using an apoptosis detection kit. BEL-7402 cells were plated in 6-well plates (5.0 × 10^5 cells/well) and incubated at 37 °C overnight. Exponentially growing cells were then incubated with 6h at either 0.01 or 0.1 µM, or taxol at 0.1 µM. Vehicle group was treated with 0.1% DMSO. Following 12 h of incubation, cells were analysed for apoptosis as previously described, using a FACSCalibur flow cytometer with Cell Quest software (Becton-Dickinson, Franklin Lakes, NJ, USA).

The test system of data set [12] is BEL-7402 cells. As to the kind of experiment: Transwell cell migration assay. It is filed as cell-based, human. To be noted: BEL-7402, transwell, 24 h, 0.1 or 0.5 µM. How it is done:
Quantitative cell migration was performed using 24-well Boyden chambers (Corning, NY, USA) as described. Briefly, transwells with 8-µm pore size filters were inserted into 24-well plates. RPMI-1640 (500 µL) containing 10% FBS was added to the lower chamber, and 100 µL of a serum-free cell suspension (1 × 10^5 cells) was placed in the upper chamber. The BEL-7402 cells were pre-treated with indicated concentrations of 6h, taxol, or DMSO. The plates were incubated at 37 °C with 5% CO2 for 24 h, and the cells on the upside were removed using cotton swaps. After several rinses, the cells adhering in the lower layer of insert were fixed with methanol and stained with 1× crystal violet solution. The number of migrated cells in nine randomly selected fields from triplicate chambers was counted in each experiment under a phase-contrast microscope at 200× magnification.

The test system of data set [13] is BEL-7402 cells. As to the kind of experiment: Trypan blue staining. Particulars: 0.001 µM to 10 µM, data not shown. The format is cell-based. Here is the method:
Trypan blue staining was used to further investigate the cytotoxicity of 6h.

Data set [14] concerns cyclin A. Briefly: Western blotting, cyclin A. To be noted: BEL-7402, 12 h, immunoblot, dose-dependent. The format is cell-based, human. Here is the method:
(§2) BEL-7402 cells were harvested in logarithmic growth phase and the adherent and floating cells were collected after 12 h of drug treatment. The collected cells were resuspended in cold RIPA buffer (100 mM NaCl, 100 mM Tris (pH7.4), 10% Triton X-100, 1 mM PMSF, pH7.5) with 0.1 µM leupetin protease inhibitor as well as 1 µg/mL pepstatin and cracked on ice for 30 min. Then according to the reference to did immunoblotting assay.
(A western blot detects proteins with antibodies after separation by electrophoresis.)

In data set [15] the test system is cyclin D1. As to the kind of experiment: Western blotting, cyclin D1. The format is cell-based, human. Particulars: BEL-7402, 12 h, immunoblot, dose-dependent. Here is the method:
as §2

Data set [16] has as its system cyclin B1. As to the kind of experiment: Western blotting, cyclin B1. Particulars: BEL-7402, 12 h, immunoblot. The format is cell-based, human. Here is the method: as §2

What is called IC50 is the concentration needed to halve the response being measured. Low values mean inhibition by little substance, high ones a need for much substance. Take `COc1cc(/C(C#N)=C/c2ccc(C)cc2)cc(OC)c1OC` [Compound 6h, (Z)-3-(p-Tolyl)-2-(3,4,5-trimethoxyphenyl)acrylonitrile]: in data set [1], the “fold more active than taxol against MGC-803 cells” value amounted to 6 fold. Moreover, the half-inhibitory concentration (IC50) is 10 to 7210 nM in [1] (Homo sapiens, MGC-803, 48 h); less than 10 nM in data set [1]; 530 ± 23 nM in [2] (Homo sapiens, MTT, 48 h incubation, A549); 3740 ± 1730 nM in [3] (Homo sapiens, HepG2, MTT, 48 h incubation, HepG-2); 510 ± 450 nM in data set [4] (Homo sapiens, MTT, 48 h incubation, AGS); 150 ± 30 nM in data set [5]. The IC50 in [6] (Homo sapiens, HCT-116, MTT, 48 h incubation, HCT116) is 610 ± 160 nM; in data set [7], greater than 100000 nM; in data set [8], greater than 100000 nM; in data set [9], greater than 100000 nM; in data set [10] it was 9450 ± 5250 nM. Besides, the “SI IC50 (L-02/A549)” value in [2] (selectivity index, IC50 (L-02)/IC50 (A549)) is listed as greater than 188.6. In addition, in [3] (selectivity index, IC50 (L-02)/IC50 (HepG-2)), the “SI IC50 (L-02/HepG-2)” value is recorded as greater than 26.7. In [4] (selectivity index, IC50 (L-02)/IC50 (AGS)), the “SI IC50 (L-02/AGS)” value was greater than 196.0. For the same compound, the “SI IC50 (L-02/HCT116)” value in [6] (selectivity index, IC50 (L-02)/IC50 (HCT116)) was greater than 163.9. Besides, the “total apoptotic cells (early + late apoptotic cells)” value in data set [11] amounted to 10.2%. In addition, the “migration ratio compared with the control group” value in data set [12] is reported as “markedly decreased”. Further, the “percentages of dead cells (trypan blue)” value in [13] is reported as “negligible”. Moreover, in data set [14], the “expression of cyclin A compared with the vehicle group” value is on record as “lower expression”. The “expression of cyclin D1 compared with the vehicle group” value in data set [15] is reported as “lower expression”. Besides, in data set [16], the “expression of cyclin B1 compared with vehicle or 0.1 µM of taxol” value is “increased expression”.
